The test system of experiment [1] is C2C12 cells. As to the kind of experiment: Chicken prelamin A peptide treatment of proliferating C2C12 cells, desmin immunostaining. The experiment is classed as cell-based, mouse. Particulars: 40 ug/ml. The procedure:
The chicken homologue of the human prelamin A peptide (SEQ ID NO: 17) was chemically synthesized and farnesylated and carboxymethylated. The lyophilized peptide was dissolved at 10 mg/ml in 50% DMSO/50% water. Actively proliferating C2C12 cells were treated with the chicken prelamin A peptide at 40 ug/ml on plastic chamber slides in complete DMEM media containing 10% fetal bovine serum (FBS). After 20 hours the cells were fixed in methanol/acetone and then immunostained with a rabbit anti-desmin primary antibody and a Texas Red conjugated anti-rabbit secondary antibody. Cover slips were mounted with media containing DAPI.

Experiment [2] concerns NIH3T3-L1 preadipocytes. Description: Chicken prelamin A peptide treatment of preadipocytes, oil red O staining. It counts as cell-based. Particulars: 72 hours. From the text:
Based on the change in morphology and the oil red 0 staining, the chicken peptide induces the differentiation of NIH3T3-L1 cells into adipocytes.

The subject of experiment [3] is C2C12 myoblasts. As to the kind of experiment: Prelamin A pre peptide treatment of mitotically dividing C2C12 myoblasts, microscopy/immunostaining. The experiment is classed as cell-based, mouse. On the procedure:
(§1) Cells and transfections. C2C12 and H9C2 cells were cultured in Growth Media (GM) defined as DMEM containing 10% (vol/vol) fetal bovine serum supplemented with Lglutamine, HEPES, non-essential amino acids and antibiotics. Effectene (Qiagen) was used to transfect plasmid DNA into cells following the manufacturer's instructions. Nondifferentiating transfected cells were allowed to continue growing for an additional 24 h before being processed for microscopy, or until confluent for protein isolation.
Peptide synthesis. The farnesylated and carboxymethylated prelamin A C-terminal peptide N-LLGNSSPRTQSPQNC-C (SEQ ID NO:2) was generated by FMOC solid phase peptide synthesis, and farnesylated and carboxymethylated (Biosynthesis). The peptide was analyzed on a C4 column and by laser desorption mass spectrometry. The lyophilized peptide was resuspended in DMSO.
(§2) Microscopy. Cells were fixed in cold 70% methanol/30% acetone solution for 10 min. Immunostaining was performed with anti-human lamin A/C (Novocastra), anti-prelamin A (Santa Cruz), or anti-desmin (Sigma) primary antibodies followed by the appropriate fluorescently labeled secondary antibody and mounting in anti-fade media containing DAPI (Vector Laboratories). Images were captured on an Olympus IX81 inverted microscope with Olympus objectives (U PLAN APO 10× oil N.A. 0.40, UAPO 40× oil N.A. 1.35, TIRFM PLAN APO 60× oil N.A. 1.45 WD 0.15 mm) and a Hamamatsu ORCA IIER monochromatic CCD camera and Intelligent Imaging Slidebook software. Images were also acquired on an Olympus IX70 Infinity inverted microscope with Olympus objectives (100× U PLAN APO, N.A. 1.35, W.D. 0.1 mm, oil; 20× U PLAN Fluorite, N.A. 0.5) with a Photometrics Quantix cooled CCD camera using Deltavision software. Signal strengths for the individual channels were adjusted using Adobe Photoshop strictly for improving the overall signal to noise ratio.
The farnesylated and carboxymethylated prelamin A pre peptide was chemically synthesized, and mitotically dividing C2C12 myoblasts were treated with the peptide at 1, 10 and 25 μg/ml in complete growth media containing 10% FBS.

Experiment [4] has as its system H9c2 rat cardiac myoblasts. Description: Prelamin A pre peptide treatment of H9c2 cardiac myoblasts, desmin immunostaining. The experiment is classed as cell-based. On the procedure:
as §1, §2
These cells were previously considered to be of cardiac lineage in part because they express heart-specific L-type calcium channels after prolonged exposure to retinoic acid during serum starvation induced differentiation (24). However, differentiation of H9c2 cells in culture has previously led to fusion and multinucleate myotube formation more resembling skeletal myotubes than cardiac myocytes.
Higher order intra- and intercellular organization is clearly evident in visible striations in the desmin staining pattern. […]

Experiment [5] deals with H9c2 cells. Description: Western blots of peptide-treated H9c2 cells. It counts as cell-based, rat. To be noted: Western blot. On the procedure:
Western blots. Cells were lysed in cell buffer (1% Triton X-100, 20 mM Tris-Cl, 7.5, 10 mM NaCl, 5 mM MgC2) containing 46 μg/ml leupeptin, 10 μg/ml aprotinin, and 250 μg/ml AE-BSF for 10 min on ice. Total protein concentration was determined using BioRad Protein Assay reagent and equal amounts of total protein were loaded in each lane. Western blots were probed with anti-lamin A/C (Novocastra, Santa Cruz), antiprelamin A (Santa Cruz) and anti-myogenin (Santa Cruz) primary antibodies and HRP-conjugated secondary antibodies (Santa Cruz, Pierce). Secondary antibody detection was performed using Super signal HRP (Pierce).
Higher order intra- and intercellular organization is clearly evident in visible striations in the desmin staining pattern. […] As in serum starvation induced differentiation of H9c2 myoblasts (26), an increase in the myogenic transcription factor myogenin is seen upon peptide treatment (FIG. 5F).
For orientation: In western blotting, separated proteins are transferred to a membrane and probed.

The test system of experiment [6] is neonatal rat cardiac myocytes (NRMCs). Description: Peptide treatment of neonatal rat cardiac myocytes (NRMCs). The experiment is classed as cell-based. From the text: Consequently, the prelamin A pre peptide not only determines tissue organization amongst the same type of cells, but also intracellular organization between different cell and tissue types.
The test system of experiment [7] is adult rabbit cardiac myocytes. As to the kind of experiment: Peptide treatment of adult rabbit cardiac myocytes. It counts as cell-based. Particulars: differentiated cells.
The subject of experiment [8] is ES cells. Description: Peptide treatment of embryonic stem cells, staining for tubulin, pre peptide, DAPI. Particulars: 1 μg/ml, 6 hours. The experiment is classed as cell-based. An excerpt:
ES cells were contacted with the prelamin A pre peptide (courtesy of Dr. Chris Hogan, University of Colorado).
FIGS. 14A-14C show a 10× control. The ES cells have round distinct nuclei and are expressing tubulin. The prelamin A signal is primarily in extracellular aggregates, though nuclear staining can also be detected.

In experiment [9] the test system is Mouse neural stem cells. As to the kind of experiment: Peptide treatment of mouse neural stem cells, lamin A/C, tubulin, DAPI staining. It counts as cell-based. Particulars: two days. On the procedure: Mouse neural stem cells were treated with the prelamin A peptide for two days (FIGS. 18D-18F) and were then fixed, immunostained for lamin A/C expression (FIGS. 18A and 18D) and tubulin expression (FIGS. 18B and 18E), and stained for DNA with DAPI (FIGS. 18C and 18F). […] Tubulin expression in untreated cells is cytoplasmic and relatively diffuse, and tubulin is excluded from the cell nucleus. In peptide-treated cells a distinct filamentous tubulin staining pattern is seen initiating at the cell nucleus and extending into the cell body.

Experiment [10] concerns Mouse F9 embryonic carcinoma cells. As to the kind of experiment: Peptide treatment of F9 embryonic carcinoma cells, lamin A/C, keratin 8, DAPI staining. It counts as cell-based. Particulars: two days. On the procedure:
Mouse F9 embryonic carcinoma cells were treated with the prelamin A peptide for two days (FIGS. 19D-19F) and then were fixed, immunostained for lamin A/C expression (FIGS. 19A and 19D) and keratin 8 expression (FIGS. 19B and 19E), and stained for DNA with DAPI (FIGS. 19C and 19F). Keratin 8 and lamin A/C co-localize in all cells. […] Both keratin 8 and lamin A/C display distinct perinuclear filamentous staining, with greater expression towards the center of cell colonies than the periphery, in untreated F9 cells. […] The treated cells display a DNA morphology consistent with expansion of DNA into […]. Furthermore, cells at the edges of the treated colonies display altered cell morphology and are extending away from the colony, and intercellular spacing in the treated cell colonies has clearly been expanded.

The test system of experiment [11] is neuroblastoma. Description: Peptide application to neuroblastoma cells (data not shown). It counts as cell-based.
For experiment [12], the system named is fibroblasts. Description: Peptide exposure of homogeneous fibroblast cultures. The experiment is classed as cell-based.

This note sets out measurements from patent US8318490B2, “Prelamin A pre peptide as a universal stem cell differentiation signal” (The Regents of the University of Colorado, a Body Corporate, priority 2006, dated 2012).

Ends that are not written are not given here.

With “VLGGAGPRRQAPAPQGC (listed as Gallus gallus) [chicken prelamin A peptide, chicken homologue of the human prelamin A peptide, chemically synthesized]”, the cytoskeleton result in experiment [1] (20 hours, desmin staining) is “cytoskeleton formation”. In [1] (within 20 hours, DMEM 10% FBS), the cell cycle entry is on record as “induced cell cycle arrest”; the morphogenesis and fusion result was “myoblast morphogenesis and fusion”. Also, in experiment [2], the differentiation entry is given as “differentiated into adipocytes” and the “oil red O staining” value is “stained positively with oil red 0”.
As for “N-LLGNSSPRTQSPQNC-C (not fully specified (residue 15); also: farnesylated, carboxymethylated; listed as Homo sapiens) [prelamin A pre peptide, farnesylated and carboxymethylated prelamin A C-terminal peptide (human, 15 amino acids), made by FMOC solid phase peptide synthesis]”, in experiment [3] (1 μg/ml, six hours, complete growth media containing 10% FBS), the cell morphogenesis result is on record as “cells have undergone morphogenesis into a bipolar configuration”. Besides, the desmin localization result in experiment [3] (1 μg/ml, six hours, growth media 10% FBS) is “desmin can be seen localizing to the interface with the nuclear lamina and forming a filamentous skeleton at the locations where cells interact”. Besides, in [3] (6 hours after peptide exposure), the desmin expression entry is “desmin expression is either upregulated or redistributed”; the “prelamin A matrix formation” value was “prelamin A forms intra- and intercellular matrices”. Further, the cell fusion result in [3] (6 hours of peptide treatment) is “cell fusion can be seen”. In addition, the “cell fusion / tissue formation” value in experiment [3] (72 hours, depending on cell density) was “the cells have fused to form either sheets or myotubes”. The “time to induction of differentiation after contact with the peptide” value in experiment [3] (absence of conventional differentiation factors or cell confluence) is listed as “within minutes”. Also, in experiment [3] (closely spaced myoblasts), the “fusion of closely spaced myoblasts and cell death” value was “induces fusion of closely spaced myoblasts into a syncicium which eventually results in cell death”. Also, the “effect of higher peptide concentrations” value in [3] (higher concentrations of the peptide) was “cell fusion and myotube formations”. Moreover, the “concentrations inducing myoblast differentiation” value in experiment [3] (in vitro) was “micromolar and even nanomolar concentrations”. Further, in experiment [3] (low concentrations of the peptide), the ECM excretion result was “excrete ECM”. In experiment [3] (peptide at 1, 10 and 25 μg/ml), the “effect on cell proliferation” value is given as “dose-dependant effect on cell proliferation” and the polarization of nuclei entry is “induces the kidney-shaped polarization of nuclei”. Also, the “effect of lower peptide concentrations” value in [3] (topical exposure, lower peptide concentrations) is “differentiation and morphogenesis representing a number of different cell types, and to intercellular interactions and tissue formation”. The tissue formation result in [4] (after 48 hours) was “formed a tissue sheet of mono- and binucleated cells interconnected by an extensive ECM”. In addition, the “time to extracellular matrix formation” value in experiment [4] (cardiac myoblasts contacted with peptide) is at most 5 min. In addition, the extracellular matrix secretion result in experiment [4] (within six hours, growth media containing 10% FBS) is given as “secrete an extensive desmin extracellular matrix (ECM)”. Besides, in experiment [5], the “lamin A/C expression” value is recorded as “modest increases”, the myogenin expression entry was “increase” and the “prelamin A expression” value was “modest increases”. Further, in experiment [6] (10 ug/ml, six hours), the cell fusion result is recorded as “a number of cells can be seen to have fused” and the cell morphology entry was “show an elongated morphology”. Moreover, the morphogenesis and fusion entry in [6] (25 ug/ml, 18 hours) was “more extensive myocytes morphogenesis and fusion is observed”. Moreover, the fusion into myosheets result in experiment [6] (72 hours of exposure) is given as “fused into beating myosheets”. In experiment [6] (fibroblasts adjacent to NRMCs, tubulin and actin staining), the “effect on fibroblasts and interaction between cell types” value is “induces the differentiation of fibroblasts and fusion/cross-talk between different cell types”. Further, the cytoskeletal effect result in experiment [7] is “cytoskeletal rearrangements were induced and there was a dissolution of the actin cytoskeleton”. For the same substance, in experiment [8], the DNA morphology entry is recorded as “changed drastically”, the “secretion of pre peptide” value is given as “extensive secretion of the pre peptide” and the tubulin expression result was “no longer any tubulin expression”. In [9], the cell appearance entry is given as “taken on the appearance of nerve cells, including glial cells”; the “cell morphology and tubulin expression” value was “induced changes in cell morphology and tubulin expression”; the cell proliferation entry is given as “inhibited cell proliferation”. For the same substance, in experiment [10], the “cell and DNA morphology, intercellular organization, lamin A/C and keratin 8 expression” value was “induces changes in cell morphology, DNA morphology, intercellular organization, and lamin A/C and keratin 8 expression”; the cell proliferation result was “severely inhibits cell proliferation”. For the same substance, the “effect on neuroblastoma cells” value in experiment [11] is “arrest and aggregation”. Also, in [12], the “structural effect on fibroblasts” value is “underwent structural reorganization”.
